Data set [1] relates to Candida albicans ATCC 10231. The data set is described as follows: Antifungal susceptibility testing, microdilution MIC. It counts as cell-based. The protocol:
(§1) Antifungal susceptibility testing. The antifingal activity of the compounds was measured by a standard microdilution method. […] The fungal strains tested included Cryptococcus neoformans H99, Cryptococcus neoformans ATCC 90112 and Candida albicans ATCC 10231. All tests were performed in duplicate.
(§2) A range of cationic compounds were assayed for antifungal activity in a standardised serial dilution sensitivity test against C. neoformans ([…]) and C. Albicans (ATCC 10231).

A further data set relates to erythrocyte. It counts as cell-based. Particulars: 37° C., 1 h. As for the experimental part: Human blood was collected in 10 mL Vacutainer tubes containing potassium-EDTA as anticoagulant. The blood from each vacutainer was transferred to a 50 mL centrifuge tube and the cells washed three times with calcium- and magnesium-free phosphate buffered saline (PBS) (Gibco) by centrifugation at 2000×g for 15 min. The third supernatant was clear and colourless. Cells were stored in PBS for up to two weeks. The cell suspension in PBS (0.5 mL) was mixed with a stock solution of test substance (0.5 mL) at the appropriate concentration (final erythrocyte concentration of approx. 0.5×10^9 per mL). The mixtures were incubated at 37° C. for 1 h with gentle shaking, then centrifuged at 2000×g for 10 min. The supernatant was diluted 10-fold with PBS and the optical density measured at 540 nm. The values for 0% and 100% lysis were determined by incubating cells with PBS or 0.1% Triton X-100 (in water), respectively. Assays were carried out in triplicate.

Data set [2] deals with Cryptococcus neoformans ATCC 90112. Put plainly: Antifungal susceptibility testing, microdilution MIC. Type of data set: cell-based. As for the experimental part: as §1, §2
For data set [3], the system named is secreted phospholipase B (PLB activity). Put plainly: Radiometric assay, secreted PLB activity. Type of data set: biochemical, Cryptococcus neoformans H99. The protocol:
(§3) Fungal isolates and media. […] Isolate H99 was kindly supplied by Dr. Gary Cox (Duke University Medical Center, Durham, N.C., USA), and subcultured onto Sabouraud dextrose agar (SDA) at 30° C.
(§4) Preparation of supernatants containing secreted phospholipase activities. Isolate H99 was grown to confluence on SDA in 16 cm diameter Petri dishes for 72 h at 30° C. in air. Cells scraped from 10-20 dishes were washed sequentially with isotonic saline and imidazole buffer (10 mM imidazole, 2 mM CaCl2, 2 mM Mg Cl2, 56 mM D-Glucose, made up in isotonic saline, pH 5.5), resuspended in a volume of this buffer of about 10% of the cell volume, and incubated for 24 h at 37° C. The cell-free supernatant was separated by centrifugation as previously described and stored at −70° C.
Radiometric assay method for phospholipases. Enzyme activities were measured as described previously in a final volume of 125 μL at 37° C. For the determination of secreted PLB activity, carrier dipalmitoyl phosphatidylcholine (DPPC, final concentration 800 μM) and 1,2-di[1-^14C] palmitoyl phosphatidylcholine (20,000 dpm) were dried under nitrogen and suspended in 125 mM imidazole acetate buffer (assay buffer, pH 4.0) by sonication using a Branson 450 sonifier. The reaction time was 22 min, using 1 μg total protein and PLB activity was determined by the rate of decrease of the radiolabelled PC substrate, with appearance of the label in free fatty acid. This assay also simultaneously allows for the determination of phospholipase A, C and D activities. These activities were measured by the appearance of radiolabel from PC in Lyso PC, diacylglycerol and phosphatidic acid, respectively.
(§5) All reactions were terminated by adding 0.5 mL of chloroform:methanol (2:1 v/v). The reaction products were extracted by the method as disclosed in Bligh, E. C. and W. J. Dyer. 1959 ‘A rapid method of total lipid extraction and purification.’ Can. J. Biochem. Physiol. 37:911-917, separated by TLC and quantified as previously described. In the case of PLC activity, the TLC plates were developed in petroleum ether (BP 60-80° C.): diethyl ether: acetic acid (90:15:1, v/v/v) instead of chloroform:methanol:water (65:25:4, v/v/v).
(§6) Preparation of inhibitors and use in assays. The following compounds were tested (for structures, see FIG. 2): compound 1, 1,12-bis(tributylphosphonium)dodecane dibromide (Fluka AG, Buchs, Switzerland); compound 2, 1,10-bis(tributylammonium)-decane dibromide; compound 3, 1,12-bis(tributylammonium)do-decane dibromide (both synthesised in-house); compound 4, 1,10-bis(trimethylammonium)decane dibromide [“decamethonium”] (Sigma, St. Louis Mo., USA). All compounds were prepared as stock solutions of 700 μM in assay buffer containing 5 mM EDTA, which was then diluted serially with buffer to obtain solutions of 70, 7, 0.7 and 0.07 μM. In each assay, 45 μL of these solutions was used, and the final volume of 125 μL was made up of substrate, enzyme and buffer. The radiometric assay was carried out as above. Inhibition was calculated as the percent of substrates (DPPC or Lyso-PC) remaining in the case of PLB and LPL activities, or of DPPC produced, in the case of the LPTA activity. The amounts converted, or produced, in the inhibitor-free control were normalised to 100%, and the inhibition calculated against it. All assays were done in triplicate.
(§7) Under these conditions only PLB, LPL and LPTA activities (both secreted and cell-associated) were measured. Initially, compounds deemed to be potential inhibitors were assayed at 25 and 250 μM. Those showing some inhibition were then also assayed at 2.5 and 0.25 μM.

The subject of data set [4] is secreted phospholipase B (LPL/LPTA activities). The data set is described as follows: Radiometric assay, secreted LPL and LPTA activities (Lyso assay). It counts as biochemical, Cryptococcus neoformans H99. The protocol: as §3, §4
Secreted LPL and LPTA activities were measured simultaneously in a reaction mixture containing 1-[^14C]palmitoyl lyso-PC (25,000 dpm) and carrier lyso-PC (final concentration 200 μM) in assay buffer. The reaction time was […] with 1 μg of total protein and LPL activity was measured by the rate of loss of 1-[^14C]palmitoyl lyso-PC with release of radiolabelled fatty acids. LPTA activity was estimated from the rate of formation of radiolabelled PC.
as §5, §6, §7

Where [5] appears, read: Candida albicans, ATCC10231, Table 7, read-out: MIC (μM) C. alb. (10231).
The mark [6] stands for this setting: Cryptococcus neoformans, ATCC90112, Table 7, read-out: MIC (μM) Crypto. (ATCC 90112).
The mark [7] stands for this setting: Table 7, read-out: MIC (μM) Crypto. (ATCC 90112).
Where [8] appears, read: Table 7, read-out: MIC (μM) C. alb. (10231).

Like-named read-outs stand apart in the source and are kept apart here.

The MIC is the lowest concentration found to suppress growth.

On to `CCCCCCCCCCCCCCCC[N+](CCCC)(CCCC)CCCC`, for which the MIC in data set [1] (setting [5]) was determined as 1.4 µM. In addition, the “Haemolytic assay (%)” value in the data set on erythrocyte (3.5 μM) is listed as 2.5%; with erythrocyte (35 μM), 4%; in the data set on erythrocyte (88 μM), 19%; in the data set with erythrocyte (175 μM) it was 75%; in the data set on erythrocyte (350 μM) it was 100%.

Consider `CCCC[N+](CCCC)(CCCC)CCCCCCCCCCC[N+](CCCC)(CCCC)CCCC` [1,11-Bis-(tributylammonium)undecane dichloride], for which the minimal inhibitory concentration (MIC) in data set [2] (setting [6]) was 22 µM; in data set [1] (setting [5]), 44 µM.

On to `C[N+]1(CCCCCCCCCCCC[N+]2(C)CCOCC2)CCOCC1` [1,12-Bis-(1-methylmorpholinium)dodecane dibromide], for which the figures for the MIC in data set [2] (setting [6]) and in data set [1] (setting [5]) were 44 µM and 88 µM, respectively.

In the case of `C(CCCCCC[N+]12CCC(CC1)CC2)CCCCC[N+]12CCC(CC1)CC2` [1,12-Bis-(quinuclidinium)dodecane dibromide], the results for the MIC in data set [2] (setting [6]) and in data set [1] (setting [5]) were 350 µM and no less than 350 µM, respectively. In addition, the “PLB assay (% inhibition)” value in data set [3] (0.25 μM) came to 0%; in data set [3] (2.5 μM), 0%; in data set [3] (25 μM), 0%; in data set [3] (250 μM) it was 5%. The “Lyso assay (% inhibition) LPL” value in data set [4] (0.25 μM), in data set [4] (2.5 μM), in data set [4] (25 μM) and in data set [4] (250 μM) was 250 μM = 0% 25 μM = 0% 2.5 μM = 0% 0.25 μM = 0% each time. The “Lyso assay (% inhibition) LPTA” value in data set [4] (0.25 μM), in data set [4] (2.5 μM), in data set [4] (25 μM) and in data set [4] (250 μM) was 250 μM = 0% 25 μM = 0% 2.5 μM = 0% 0.25 μM = 0% in each case.

For the compound `CC[N+](CC)(CC)CCCCCCCCCCCC[N+](CC)(CC)CC` [1,12-Bis-(triethylammonium)dodecane dibromide], the MIC was 11 µM in data set [2] (Cryptococcus neoformans, ATCC90112, read-out: MIC (μM) Crypto. (ATCC 90112)) and 22 µM in data set [1] (Candida albicans, ATCC10231, read-out: MIC (μM) C. alb. (10231)).

For the compound `CCCCCC[N+](CCCCCC)(CCCCCC)CCCCCCCCCCCC[N+](CCCCCC)(CCCCCC)CCCCCC.[Cl-].[Cl-]` [1,12-Bis-(trihexylammonium)dodecane dichloride], the figures for the minimal inhibitory concentration (MIC) in data set [2] (setting [7]) and in data set [1] (setting [8]) were 17.5 µM and 8.8 µM, respectively.

On to `CC(C)C[N+](CCCCCCCCCCCC[N+](CC(C)C)(CC(C)C)CC(C)C)(CC(C)C)CC(C)C.[Br-].[Br-]` [1,12-Bis-(triisobutylammonium)dodecane dibromide], for which, in data set [2] (Table 7), the “MIC (μM) Crypto. (ATCC 90112)” value is reported as “≧350 μM”. Also, in data set [1] (Table 7), the “MIC (μM) C. alb. (10231)” value is reported as “≧350 μM”. Besides, the “PLB assay (% inhibition)” value in data set [3] (25 μM) and in data set [3] (250 μM) was 250 μM = 0% 25 μM = 0% 2.5 μM = n.d. 0.25 μM = n.d throughout. The “Lyso assay (% inhibition) LPL” value in data set [4] (25 μM) and in data set [4] (250 μM) was 250 μM = 0% 25 μM = 0% 2.5 μM = n.d. 0.25 μM = n.d throughout. The “Lyso assay (% inhibition) LPTA” value in data set [4] (25 μM) amounted to 4%; in data set [4] (250 μM), 5%.

With `CC(C)CC[N+](CCCCCCCCCCCC[N+](CCC(C)C)(CCC(C)C)CCC(C)C)(CCC(C)C)CCC(C)C.[Cl-].[Cl-]` [1,12-Bis-(triisopentylammonium)dodecane dichloride], the MIC in data set [2] (setting [7]) is 4.4 µM; in data set [1] (setting [8]), 2.2 µM. The “PLB assay (% inhibition)” value in data set [3] (0.25 μM) is recorded as 0%; in data set [3] (2.5 μM), 9%; in data set [3] (6.7 μM), 38%; in data set [3] (12.5 μM), 56%; in data set [3] (25 μM), 68%; in data set [3] (250 μM), 63%. Also, the “Lyso assay (% inhibition) LPL” value in data set [4] (25 μM) and in data set [4] (250 μM) was 250 μM = 11% 25 μM = 11% 2.5 μM = n.d. 0.25 μM = n.d each time. For the same compound, the “Lyso assay (% inhibition) LPTA” value in data set [4] (25 μM) worked out at 0%; in data set [4] (250 μM), 6%.

On to `CCCCCCCC[N+](CCCCCCCC)(CCCCCCCC)CCCCCCCCCCCC[N+](CCCCCCCC)(CCCCCCCC)CCCCCCCC.[Cl-].[Cl-]` [1,12-Bis-(trioctylammonium)dodecane dichloride], for which the MIC is reported as 35 µM in data set [2] (setting [7]) and 100 µM in data set [1] (setting [8]).

Take `CC[N+](CC)(CC)CCOc1cccc(OCC[N+](CC)(CC)CC)c1OCC[N+](CC)(CC)CC` [Gallamine triethiodide, reference compound]: in data set [1] (setting [5]), the MIC is no less than 350 µM. Moreover, the “Haemolytic assay (%)” value in the data set with erythrocyte (3.5 μM), in the data set with erythrocyte (35 μM), in the data set with erythrocyte (88 μM), in the data set on erythrocyte (175 μM) and with erythrocyte (350 μM) was 350 μM = 0% 175 μM = 0% 88 μM = 0% 35 μM = 0% 3.5 μM = 0% in each case.

For the compound `C[N+]1(C)CCOC(O)(c2ccc(-c3ccc(C4(O)C[N+](C)(C)CCO4)cc3)cc2)C1` (centres unmarked) [Hemicholinium dibromide, reference compound], the MIC in data set [1] (setting [5]) was no less than 350 µM. For the same compound, the “Haemolytic assay (%)” value with erythrocyte (3.5 μM), with erythrocyte (35 μM), in the data set on erythrocyte (88 μM), with erythrocyte (175 μM) and with erythrocyte (350 μM) was 350 μM = 0% 175 μM = 0% 88 μM = 0% 35 μM = 0% 3.5 μM = 0% throughout.

The values are drawn from patent US7947854B2, “Bis-cationic compounds and use thereof” (The University of Sydney, priority 2003, dated 2011).
